In US20240287007A1, “N-(1,3,4-OXADIAZOL-2-YL)PHENYLCARBOXAMIDES AS HERBICIDES” (BAYER AKTIENGESELLSCHAFT, priority 2021, published 2024):

How the values were obtained:
Format in all cases: in vivo
[1] = system: AMARE (Amaranthus retroflexus); assay: Post-emergence herbicidal action against AMARE; details: visual assessment after about 3 weeks
Procedure: (§1) Seeds of monocotyledonous and dicotyledonous weed and crop plants are laid out in sandy loam soil in wood-fiber pots, covered with soil and cultivated in a greenhouse under good growth conditions. 2 to 3 weeks after sowing, the trial plants are treated at the one-leaf stage. The compounds of the invention, formulated in the form of wettable powders (WP) or as emulsion concentrates (EC), are then sprayed onto the green parts of the plants as aqueous suspension or emulsion at a water application rate equating to 600 to 800 l/ha with addition of 0.2% wetting agent. After the test plants have been left to stand in the greenhouse under optimal growth conditions for about 3 weeks, the action of the preparations is assessed visually in comparison to untreated controls (herbicidal action in percent (%): 100% activity=the plants have died, 0% activity=like control plants).

[2] = system: SETVI (Setaria viridis); assay: Post-emergence herbicidal action against SETVI; details: visual assessment after about 3 weeks
Procedure: as §1

[3] = system: VIOTR (Viola tricolor); assay: Post-emergence herbicidal action against VIOTR; details: visual assessment after about 3 weeks
Procedure: as §1

[4] = system: VIOTR (Viola tricolor); assay: Pre-emergence herbicidal effect against VIOTR; details: scored visually after 3 weeks
Excerpt: (§2) Seeds of monocotyledonous and dicotyledonous weed plants and crop plants are laid out in sandy loam soil in wood-fiber pots and covered with soil. The compounds of the invention, formulated in the form of wettable powders (WP) or as emulsion concentrates (EC), are then applied to the surface of the covering soil as aqueous suspension or emulsion at a water application rate equating to 600 to 800 l/ha with addition of 0.2% wetting agent. After the treatment, the pots are placed in a greenhouse and kept under good growth conditions for the trial plants. The damage to the test plants is scored visually after a test period of 3 weeks by comparison with untreated controls (herbicidal activity in percent (%): 100% activity=the plants have died, 0% activity=like control plants).

[5] = system: DIGSA (Digitaria sanguinalis); assay: Post-emergence herbicidal action against DIGSA; details: visual assessment after about 3 weeks
Procedure: as §1

[6] = system: AVEFA (Avena fatua); assay: Pre-emergence herbicidal effect against AVEFA; details: scored visually after 3 weeks
Excerpt: as §2

[7] = system: LOLRI (Lolium rigidum); assay: Post-emergence herbicidal action against LOLRI; details: visual assessment after about 3 weeks
Procedure: as §1

[8] = system: MATIN (Matricaria inodora); assay: Post-emergence herbicidal action against MATIN; details: visual assessment after about 3 weeks
Procedure: as §1

[9] = system: ECHCG (Echinochloa crus-galli); assay: Pre-emergence herbicidal effect against ECHCG; details: scored visually after 3 weeks
Excerpt: as §2

[10] = system: AMARE (Amaranthus retroflexus); assay: Pre-emergence herbicidal effect against AMARE; details: scored visually after 3 weeks
Excerpt: as §2

[11] = system: SETVI (Setaria viridis); assay: Pre-emergence herbicidal effect against SETVI; details: scored visually after 3 weeks
Excerpt: as §2

[12] = system: KCHSC (Kochia scoparia); assay: Post-emergence herbicidal action against KCHSC; details: visual assessment after about 3 weeks
Procedure: as §1

[13] = system: VERPE (Veronica persica); assay: Pre-emergence herbicidal effect against VERPE; details: 80 g/ha, scored visually after 3 weeks
Excerpt: as §2

[14] = system: ABUTH (Abutylon threophrasti); assay: Pre-emergence herbicidal effect against ABUTH; details: scored visually after 3 weeks
Excerpt: as §2

[15] = system: ABUTH (Abutylon threophrasti); assay: Post-emergence herbicidal action against ABUTH; details: visual assessment after about 3 weeks
Procedure: as §1

[16] = system: ALOMY (Alopecurus myosuroides); assay: Pre-emergence herbicidal effect against ALOMY; details: 80 g/ha, scored visually after 3 weeks
Excerpt: as §2

[17] = system: POLCO (Polygonum convolvulus); assay: Pre-emergence herbicidal effect against POLCO; details: scored visually after 3 weeks
Excerpt: as §2

[18] = system: LOLRI (Lolium rigidum); assay: Pre-emergence herbicidal effect against LOLRI; details: scored visually after 3 weeks
Excerpt: as §2

[19] = system: POLCO (Polygonum convolvulus); assay: Post-emergence herbicidal action against POLCO; details: visual assessment after about 3 weeks
Procedure: as §1

[20] = system: PHBPU (Pharbitis purpurea); assay: Pre-emergence herbicidal effect against PHBPU; details: scored visually after 3 weeks
Excerpt: as §2

[21] = system: KCHSC (Kochia scoparia); assay: Pre-emergence herbicidal effect against KCHSC; details: scored visually after 3 weeks
Excerpt: as §2

[22] = system: PHBPU (Pharbitis purpurea); assay: Post-emergence herbicidal action against PHBPU; details: visual assessment after about 3 weeks
Procedure: as §1

[23] = system: DIGSA (Digitaria sanguinalis); assay: Pre-emergence herbicidal effect against DIGSA; details: scored visually after 3 weeks
Excerpt: as §2

[24] = system: VERPE (Veronica persica); assay: Post-emergence herbicidal action against VERPE; details: visual assessment after about 3 weeks
Procedure: as §1

[25] = system: MATIN (Matricaria inodora); assay: Pre-emergence herbicidal effect against MATIN; details: scored visually after 3 weeks
Excerpt: as §2

For `CS(=O)(=O)c1c(OC(F)(F)F)ccc(C(=O)Nc2nnco2)c1Cl` [Example 1-35, 2-chloro-3-(methylsulfonyl)-N-(1,3,4-oxadiazol-2-yl)-4-(trifluoromethoxy)benzamide], the “Post-emergence effect at 20 g/ha against AMARE in %” value [1] was 90%, the “Post-emergence effect at 80 g/ha against AMARE in %” value [1] was 90% and the “Post-emergence effect at 20 g/ha against SETVI in %” value [2] was 100%. The “Post-emergence effect at 80 g/ha against SETVI in %” value [2] was 100%, the “Post-emergence effect at 20 g/ha against VIOTR in %” value [3] was 100% and the “Post-emergence effect at 80 g/ha against VIOTR in %” value [3] was 100%. The “Pre-emergence effect at 20 g/ha against VIOTR in %” value [4] was 100%, the “Pre-emergence effect at 80 g/ha against VIOTR in %” value [4] was 100% and the “Post-emergence effect at 20 g/ha against DIGSA in %” value [5] was 90%. For the same compound, the “Post-emergence effect at 80 g/ha against DIGSA in %” value [5] was 100%, the “Pre-emergence effect at 20 g/ha against AVEFA in %” value ([6]; 20 g/ha) was 90% and the “Pre-emergence effect at 80 g/ha against A VEFA in %” value ([6]; 80 g/ha) was 100%. The “Post-emergence effect at 80 g/ha against LOLRI in %” value [7] was 80%, the “Post-emergence effect at 20 g/ha against MATIN in %” value [8] was 90% and the “Post-emergence effect at 80 g/ha against MATIN in %” value [8] was 100%. The “Pre-emergence effect at 20 g/ha against ECHCG in %” value ([9]; 20 g/ha) was 100%, the “Pre-emergence effect at 80 g/ha against ECHCG in %” value [9] was 100% and the “Pre-emergence effect at 20 g/ha against AMARE in %” value ([10]; 20 g/ha) was 100%. For the same compound, the “Pre-emergence effect at 80 g/ha against AMARE in %” value [10] was 100%, the “Pre-emergence effect at 20 g/ha against SETVI in %” value ([11]; 20 g/ha) was 100% and the “Pre-emergence effect at 80 g/ha against SETVI in %” value [11] was 100%. The “Post-emergence effect at 20 g/ha against KCHSC in %” value [12] was 100%, the “Post-emergence effect at 80 g/ha against KCHSC in %” value [12] was 100% and the “Pre-emergence effect at 80 g/ha against VERPE in %” value [13] was 100%. The “Pre-emergence effect at 20 g/ha against ABUTH in %” value [14] was 90%, the “Pre-emergence effect at 80 g/ha against ABUTH in %” value [14] was 100% and the “Post-emergence effect at 20 g/ha against ABUTH in %” value ([15]; 20 g/ha) was 80%. The “Post-emergence effect at 80 g/ha against ABUTH in %” value [15] was 90%, the “Pre-emergence effect at 80 g/ha against ALOMY in %” value [16] was 80% and the “Pre-emergence effect at 20 g/ha against POLCO in %” value ([17]; 20 g/ha) was 90%. For the same compound, the “Pre-emergence effect at 80 g/ha against POLCO in %” value ([17]; 80 g/ha) was 100%, the “Pre-emergence effect at 20 g/ha against LOLRI in %” value ([18]; 20 g/ha) was 80% and the “Pre-emergence effect at 80 g/ha against LOLRI in %” value ([18]; 80 g/ha) was 90%. For the same compound, the “Post-emergence effect at 20 g/ha against POLCO in %” value ([19]; 20 g/ha) was 80%, the “Post-emergence effect at 80 g/ha against POLCO in %” value ([19]; 80 g/ha) was 100% and the “Pre-emergence effect at 20 g/ha against PHBPU in %” value ([20]; 20 g/ha) was 80%. The “Pre-emergence effect at 80 g/ha against PHBPU in %” value ([20]; 80 g/ha) was 100%, the “Pre-emergence effect at 20 g/ha against KCHSC in %” value [21] was 100% and the “Pre-emergence effect at 80 g/ha against KCHSC in %” value [21] was 100%. For the same compound, the “Post-emergence effect at 20 g/ha against PHBPU in %” value [22] was 90%, the “Post-emergence effect at 80 g/ha against PHBPU in %” value [22] was 100% and the “Pre-emergence effect at 20 g/ha against DIGSA in %” value [23] was 100%. The “Pre-emergence effect at 80 g/ha against DIGSA in %” value [23] was 100%, the “Post-emergence effect at 20 g/ha against VERPE in %” value ([24]; 20 g/ha) was 90% and the “Post-emergence effect at 80 g/ha against VERPE in %” value [24] was 100%. For the same compound, the “Pre-emergence effect at 20 g/ha against MATIN in %” value ([25]; 20 g/ha) was 100% and the “Pre-emergence effect at 80 g/ha against MATIN in %” value ([25]; 80 g/ha) was 100%.
`CSc1c(OC(F)(F)F)ccc(C(=O)Nc2nnco2)c1Cl` [Example 1-31, 2-chloro-3-(methylsulfanyl)-N-(1,3,4-oxadiazol-2-yl)-4-(trifluoromethoxy)benzamide] was tested, and the “Post-emergence effect at 20 g/ha against AMARE in %” value [1] was 100%, the “Post-emergence effect at 80 g/ha against AMARE in %” value [1] was 100% and the “Post-emergence effect at 20 g/ha against SETVI in %” value [2] was 80%. For the same compound, the “Post-emergence effect at 80 g/ha against SETVI in %” value [2] was 90%, the “Post-emergence effect at 20 g/ha against VIOTR in %” value [3] was 90% and the “Post-emergence effect at 80 g/ha against VIOTR in %” value [3] was 100%. The “Pre-emergence effect at 20 g/ha against VIOTR in %” value [4] was 90%, the “Pre-emergence effect at 80 g/ha against VIOTR in %” value [4] was 90% and the “Post-emergence effect at 20 g/ha against DIGSA in %” value [5] was 90%. For the same compound, the “Post-emergence effect at 80 g/ha against DIGSA in %” value [5] was 90%, the “Post-emergence effect at 20 g/ha against MATIN in %” value [8] was 80% and the “Post-emergence effect at 80 g/ha against MATIN in %” value [8] was 90%. The “Pre-emergence effect at 80 g/ha against ECHCG in %” value [9] was 100%, the “Pre-emergence effect at 80 g/ha against AMARE in %” value [10] was 100% and the “Pre-emergence effect at 80 g/ha against SETVI in %” value [11] was 100%. The “Post-emergence effect at 20 g/ha against KCHSC in %” value [12] was 100%, the “Post-emergence effect at 80 g/ha against KCHSC in %” value [12] was 100% and the “Pre-emergence effect at 20 g/ha against ABUTH in %” value [14] was 90%. The “Pre-emergence effect at 80 g/ha against ABUTH in %” value [14] was 100%, the “Post-emergence effect at 80 g/ha against ABUTH in %” value [15] was 90% and the “Pre-emergence effect at 20 g/ha against KCHSC in %” value [21] was 90%. The “Pre-emergence effect at 80 g/ha against KCHSC in %” value [21] was 100%, the “Post-emergence effect at 20 g/ha against PHBPU in %” value [22] was 90% and the “Post-emergence effect at 80 g/ha against PHBPU in %” value [22] was 90%. The “Pre-emergence effect at 20 g/ha against DIGSA in %” value [23] was 90%, the “Pre-emergence effect at 80 g/ha against DIGSA in %” value [23] was 100% and the “Post-emergence effect at 80 g/ha against VERPE in %” value [24] was 80%.
